The record followed here is PubChem BioAssay (NCI).

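Values below derive from 48-hour exposures of cells grown in 96-well plates, with endpoints linearly interpolated between the two concentrations bracketing the appropriate inhibition level. The concentration for 50% growth inhibition is given as GI50. The concentration for full growth arrest is given as TGI.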 Where a SMILES comes first, the peptide text is derived from it. [ ]: non-standard residue; d: D form. The star is where a group is joined. Phe(4-NO2) = N[CH](Cc1ccc([N+](=O)[O-])cc1)C(=O)O; Boc = CC(C)(C)OC(=O)*; OBn = c1ccc(CO*)cc1

Some test systems named below: OVCAR-8 ovarian; UACC-62 melanoma; HS 578T breast; BT-549 breast; SF-539 CNS; CCRF-CEM leukemia; NCI-H522 lung; SK-OV-3 ovarian; SN12C renal; HT29 colon.
Test in all cases: growth of human tumour cells (NCI), 48 h

Regarding `N#CC1=C2Sc3ccccc3N2[C@H](c2ccccc2)[C@H]2COC(=O)[C@@H]12`, the TGI in the assay with OVCAR-8 ovarian was above 100 µM; with UACC-62 melanoma it was above 100 µM; in the assay on HS 578T breast it was above 100 µM; with BT-549 breast, 70.6 µM; with SF-539 CNS it was above 100 µM; in the assay on CCRF-CEM leukemia, 30.7 µM. Also, the figures for the TGI in the assay on NCI-H522 lung and with SK-OV-3 ovarian were 27 µM and above 100 µM, respectively.
With `CC(=O)O[C@H]1CC[C@@]2(C)C(=CC[C@@H]3[C@@H]2CC[C@]2(C)C(c4cccnc4)=CC[C@@H]32)C1`, the GI50 in the assay with OVCAR-8 ovarian is 19.3 µM; with SN12C renal, 17.2 µM; in the assay on HS 578T breast, 3.38 µM; with BT-549 breast, 2.96 µM; with SF-539 CNS it was 3.14 µM; with CCRF-CEM leukemia it was 16.7 µM. The GI50 with NCI-H522 lung was 38.5 µM; in the assay on SK-OV-3 ovarian, 5.83 µM; with HT29 colon it was 3.07 µM. Moreover, the TGI in the assay on OVCAR-8 ovarian was above 100 µM; in the assay with SN12C renal it was above 100 µM; in the assay with HS 578T breast it was 71.3 µM; in the assay with BT-549 breast, 17.3 µM; in the assay with SF-539 CNS, above 100 µM; in the assay with CCRF-CEM leukemia it was above 100 µM. In addition, the figures for the TGI with NCI-H522 lung, in the assay on SK-OV-3 ovarian and with HT29 colon were above 100 µM, 95.8 µM and 12.7 µM, respectively.
In the case of `COC(=O)CCC(NC(=O)OC(C)(C)C)C(=O)NC(Cc1ccc([N+](=O)[O-])cc1)C(=O)NCC(=O)OCc1ccccc1` (centres undefined) (Boc-Glu(OMe)-[Phe(4-NO2)]-Gly-OBn; configuration not given here), the TGI in the assay on OVCAR-8 ovarian is above 100 µM; in the assay with UACC-62 melanoma, above 31.6 µM; in the assay on SN12C renal, above 100 µM; in the assay with HS 578T breast, above 64.4 µM; in the assay with BT-549 breast it was 66.9 µM; with SF-539 CNS, 63.6 µM. Further, the TGI in the assay with CCRF-CEM leukemia, in the assay on NCI-H522 lung, in the assay on SK-OV-3 ovarian and in the assay with HT29 colon was above 100 µM each time.
`Cc1ccc([N+](=O)[O-])cc1S(=O)(=O)Nc1ccc(C2=NN(c3ccc([N+](=O)[O-])cc3[N+](=O)[O-])C(c3ccccc3)C2)cc1` (centres undefined): the TGI in the assay with OVCAR-8 ovarian was 40.2 µM; in the assay with SN12C renal, 33.2 µM; in the assay on HS 578T breast, 72 µM; with BT-549 breast, 33 µM; with SF-539 CNS, 50.8 µM; in the assay with CCRF-CEM leukemia, above 100 µM. In addition, the figures for the TGI with NCI-H522 lung, with SK-OV-3 ovarian and in the assay on HT29 colon were 25.9 µM, 65.8 µM and 37.6 µM, respectively.
In the case of `CCN1CC(C)Cn2c(=O)[nH]c3cc(Br)cc1c32` (centres undefined), the TGI is above 100 µM with OVCAR-8 ovarian; above 100 µM with UACC-62 melanoma; above 100 µM in the assay with SN12C renal; 74.3 µM with HS 578T breast; 56.8 µM in the assay on BT-549 breast; above 100 µM in the assay on SF-539 CNS. For the same compound, the TGI in the assay with CCRF-CEM leukemia, in the assay on SK-OV-3 ovarian and in the assay on HT29 colon was above 100 µM throughout.
Consider `CC(=O)Oc1ccc(/C=C/C(=O)O[C@@H](C)[C@H](C)OC(=O)/C=C/c2ccc(OC(C)=O)c(OC(C)=O)c2)cc1OC(C)=O`, for which the TGI is 53.6 µM in the assay with OVCAR-8 ovarian; 33.8 µM with UACC-62 melanoma; above 100 µM in the assay with SN12C renal; above 100 µM in the assay with HS 578T breast; 89.2 µM with BT-549 breast; above 100 µM in the assay on SF-539 CNS. Moreover, the TGI came out at 42.3 µM in the assay with CCRF-CEM leukemia, 28.1 µM with NCI-H522 lung and 77.2 µM in the assay on SK-OV-3 ovarian.
As for `Oc1ccc(Cl)cc1C1=N/C(=N\CN2CCN(C/N=C3/N=C(c4cc(Cl)ccc4O)CC(c4ccccc4)N3)CC2)NC(c2ccccc2)C1` (centres undefined), the TGI in the assay on OVCAR-8 ovarian was above 100 µM; with UACC-62 melanoma, above 100 µM; in the assay with SN12C renal, 64.3 µM; in the assay with HS 578T breast it was above 100 µM; in the assay on BT-549 breast, above 100 µM; with SF-539 CNS, above 100 µM. For the same compound, the TGI with CCRF-CEM leukemia, with SK-OV-3 ovarian and in the assay with HT29 colon was above 100 µM in each case.
On to `COC1C(O)CC(OC2C(C)OC(Oc3cc(O)c4c(O)c5c(cc4c3)C[C@@H]([C@H](OC)C(=O)[C@@H](O)[C@@H](C)O)[C@H](OC3CC(OC4CC(OC6CC(C)(O)C(O)C(C)O6)C(O)C(C)O4)C(O)C(C)O3)C5=O)CC2OC(C)=O)OC1C` (some centres undefined), for which the TGI in the assay on OVCAR-8 ovarian, in the assay with UACC-62 melanoma, in the assay on SN12C renal, in the assay with HS 578T breast, with BT-549 breast and in the assay on SF-539 CNS was above 100 µM throughout. The TGI with CCRF-CEM leukemia, in the assay on NCI-H522 lung, in the assay on SK-OV-3 ovarian and with HT29 colon was above 100 µM in each case.
Consider `COc1ccc(CCn2cnc3ccccc32)cc1`, for which the TGI in the assay on OVCAR-8 ovarian, in the assay on UACC-62 melanoma, in the assay with SN12C renal, in the assay on HS 578T breast, in the assay on BT-549 breast and with SF-539 CNS was above 100 µM in each case. In addition, the TGI in the assay with CCRF-CEM leukemia, in the assay with NCI-H522 lung, with SK-OV-3 ovarian and in the assay on HT29 colon was above 100 µM in each case.
As to `CN(C)C(=S)N/N=C\C=N/NC(=S)N(C)C`, the TGI in the assay on OVCAR-8 ovarian was above 100 µM; in the assay on UACC-62 melanoma it was 22 µM; in the assay with SN12C renal it was 11.1 µM; in the assay with HS 578T breast, above 23.4 µM; with BT-549 breast, above 100 µM; in the assay with SF-539 CNS, above 100 µM. The TGI in the assay with NCI-H522 lung was above 85.3 µM; in the assay on SK-OV-3 ovarian, above 100 µM; in the assay on HT29 colon, above 100 µM.
Regarding `Cc1c(C)c(C)c(-n2[nH]c(=O)n(C)c2=O)c(C)c1C`, the TGI in the assay with OVCAR-8 ovarian, in the assay on UACC-62 melanoma, in the assay on SN12C renal, with HS 578T breast, in the assay on BT-549 breast and in the assay on SF-539 CNS was above 100 µM each time. Moreover, the TGI with CCRF-CEM leukemia, with SK-OV-3 ovarian and in the assay on HT29 colon was above 100 µM throughout.
Regarding `COc1cc2c3cc1Oc1c(O)c(OC)cc4c1[C@H](Cc1ccc(cc1)Oc1cc(ccc1O)C[C@H]3N(C)CC2)N(C)CC4`, the TGI in the assay with OVCAR-8 ovarian was determined as 37.3 µM; in the assay with UACC-62 melanoma, 33.4 µM; in the assay on SN12C renal, 34.6 µM; with HS 578T breast it was 64.9 µM; with BT-549 breast it was 28.4 µM; in the assay with SF-539 CNS, 10.9 µM. Moreover, the TGI was found to be 42.7 µM in the assay on CCRF-CEM leukemia, 27 µM in the assay on NCI-H522 lung, 79.3 µM with SK-OV-3 ovarian and 18.5 µM in the assay on HT29 colon.
Regarding `COC(=O)c1cc(C)ccc1CC(Cc1cccc(C)c1)C(=O)OC` (centres undefined), the TGI with OVCAR-8 ovarian, in the assay with SN12C renal, with HS 578T breast, in the assay with BT-549 breast, with SF-539 CNS and in the assay on CCRF-CEM leukemia was above 100 µM throughout. For the same compound, the TGI in the assay with NCI-H522 lung was above 100 µM; in the assay with SK-OV-3 ovarian it was 27.1 µM; with HT29 colon, above 100 µM.
